Values after ≈ are worked out from the molar mass of the structure shown. Values belong to the molecule of their own block, whether it stands above or below them. Active and inactive are the calls of the source. The rule behind the calls is not given here.
How the values were obtained:
[1] = molecular target: T1, High affinity cAMP-specific and IBMX-insensitive 3',5'-cyclic phosphodiesterase 8A (Homo sapiens, UniProt O60658); assay: Inhibition of PDE8A1 (480 to 820 residues) (unknown origin) expressed in Escherichia coli BL21 using [3H]-cAMP substrate at 1 uM incubated for 15 mins by liquid scintillation counting method relative to control
[2] = molecular target: T1, High affinity cAMP-specific and IBMX-insensitive 3',5'-cyclic phosphodiesterase 8A; assay: Inhibition of PDE8A1 (480 to 820 residues) (unknown origin) expressed in Escherichia coli BL21 using [3H]-cAMP substrate incubated for 15 mins by liquid scintillation counting method
[3] = Aqueous solubility of compound at pH 7.3 by HPLC analysis; type: physicochemical; details: aqueous medium
[4] = Cmax in Sprague-Dawley rat at 2.5 mg/kg, iv measured upto 24 hrs by LC-MS/MS analysis; type: ADME, organism-based; set-up: route intravenous, dose 2.5 mg/kg, time <=24; details: in vivo
Mus musculus [5] = assay: Anti-VaD activity against UCCAO-induced spatial memory deficient C57BL/6J mouse model assessed as improvement in spatial learning and memory by measuring decrease in error rate at 3 mg/kg, po administered for 21 days by passive avoidance test; type: functional, organism-based; details: time 21.0 day
[6] = Oral bioavailability in Sprague-Dawley rat at 10 mg/kg measured upto 24 hrs by LC-MS/MS analysis; type: ADME, organism-based; details: in vivo
Cytochrome P450 2C9 = Cytochrome P450 2C9 (Homo sapiens, UniProt P11712); assay: Inhibition of CYP2C9 in human liver microsomes in presence of NADPH; type: ADME
[7] = AUC (0 to infinity) in Sprague-Dawley rat at 2.5 mg/kg, iv measured upto 24 hrs by LC-MS/MS analysis; type: ADME, organism-based; set-up: route intravenous, dose 2.5 mg/kg, time <=24; details: in vivo
Cytochrome P450 2C19 = Cytochrome P450 2C19 (Homo sapiens, UniProt P33261); assay: Inhibition of CYP2C19 in human liver microsomes in presence of NADPH; type: ADME
Mus musculus [8] = assay: Anti-VaD activity against UCCAO-induced spatial memory deficient C57BL/6J mouse model assessed as improvement in spatial learning and memory by measuring reduction in escape latency at 3 mg/kg, po administered for 21 days by Morris water maze test; type: functional, organism-based; details: time 21.0 day
Mus musculus [9] = assay: Anti-VaD activity against UCCAO-induced spatial memory deficient C57BL/6J mouse model assessed as improvement in spatial learning and memory by measuring increase in latency time at 3 mg/kg, po administered for 21 days by passive avoidance test; type: functional, organism-based; details: time 21.0 day
[10] = AUC (0 to t) in Sprague-Dawley rat at 2.5 mg/kg, iv measured upto 24 hrs by LC-MS/MS analysis; type: ADME, organism-based; set-up: route intravenous, dose 2.5 mg/kg, time <=24; details: in vivo
[11] = Effective permeability of compound by PAMPA-BBB assay; type: ADME; details: read-out: permeability
[12] = Protein binding in human plasma; type: ADME, cell-free; details: read-out: PPB (converted)
[13] = Lipophilicity, log P of the compound; type: physicochemical; details: octanol/water
[14] = MRT (0 to t) in Sprague-Dawley rat at 10 mg/kg, po measured upto 24 hrs by LC-MS/MS analysis; type: ADME, organism-based; details: in vivo
[15] = MRT (0 to t) in Sprague-Dawley rat at 2.5 mg/kg, iv measured upto 24 hrs by LC-MS/MS analysis; type: ADME, organism-based; details: in vivo
[16] = Dissociation constant, pKa of the compound; type: physicochemical
Mus musculus [17] = assay: Anti-VaD activity against UCCAO-induced spatial memory deficient C57BL/6J mouse model assessed as improvement in spatial learning and memory by measuring increased the frequency of platform site crossing at 3 mg/kg, po administered for 21 days by Morris water maze test; type: functional, organism-based; details: time 21.0 day
[18] = molecular target: Voltage-gated inwardly rectifying potassium channel KCNH2 (Homo sapiens, UniProt Q12809); assay: Inhibition of human ERG expressed in CHO cells by patch clamp method; type: cell-based
Cytochrome P450 3A4 = Cytochrome P450 3A4 (Homo sapiens, UniProt P08684); assay: Inhibition of CYP3A4 in human liver microsomes using midazolam as substrate in presence of NADPH; type: ADME
[19] = AUC (0 to infinity) in Sprague-Dawley rat at 10 mg/kg, po measured upto 24 hrs by LC-MS/MS analysis; type: ADME, organism-based; set-up: route oral, dose 10 mg/kg, time <=24; details: in vivo
[20] = Tmax in Sprague-Dawley rat at 2.5 mg/kg, iv measured upto 24 hrs by LC-MS/MS analysis; type: ADME, organism-based; details: in vivo
[21] = Inhibition of PDE5A1 (535-860 residues) (unknown origin) expressed in Escherichia coli BL21 using [3H]-cAMP substrate incubated for 15 mins by liquid scintillation counting method; set-up: species or system Homo sapiens
Mus musculus [22] = assay: Anti-VaD activity against UCCAO-induced spatial memory deficient C57BL/6J mouse model assessed as improvement in spatial learning and memory by measuring increased the residence time in the platform area at 3 mg/kg, po administered for 21 days by Morris water maze test; type: functional, organism-based; details: time 21.0 day
[23] = molecular target: Dual 3',5'-cyclic-AMP and -GMP phosphodiesterase 11A (Homo sapiens, UniProt Q9HCR9); assay: Inhibition of PDE11A (588-911 residues) (unknown origin) expressed in Escherichia coli BL21 using [3H]-cAMP substrate incubated for 15 mins by liquid scintillation counting method
[24] = Tmax in Sprague-Dawley rat at 10 mg/kg, po measured upto 24 hrs by LC-MS/MS analysis; type: ADME, organism-based; details: in vivo
[25] = Cmax in Sprague-Dawley rat at 10 mg/kg, po measured upto 24 hrs by LC-MS/MS analysis; type: ADME, organism-based; set-up: route oral, dose 10 mg/kg, time <=24; details: in vivo
[26] = Half life in Sprague-Dawley rat at 2.5 mg/kg, iv measured upto 24 hrs by LC-MS/MS analysis; type: ADME, organism-based; details: in vivo
[27] = molecular target: High affinity cGMP-specific 3',5'-cyclic phosphodiesterase 9A (Homo sapiens, UniProt O76083); assay: Inhibition of PDE9A2 (181-506 residues) (unknown origin) expressed in Escherichia coli BL21 using [3H]-cAMP substrate incubated for 15 mins by liquid scintillation counting method
[28] = AUC (0 to t) in Sprague-Dawley rat at 10 mg/kg, po measured upto 24 hrs by LC-MS/MS analysis; type: ADME, organism-based; set-up: route oral, dose 10 mg/kg, time <=24; details: in vivo
[29] = molecular target: High affinity 3',5'-cyclic-AMP phosphodiesterase 7A (Homo sapiens, UniProt Q13946); assay: Inhibition of PDE7A1 (130-482 residues) (unknown origin) expressed in Escherichia coli BL21 using [3H]-cAMP substrate incubated for 15 mins by liquid scintillation counting method
Cytochrome P450 1A2 = molecular target: T2, Cytochrome P450 1A2 (Homo sapiens, UniProt P05177); assay: Inhibition of CYP1A2 in human liver microsomes in presence of NADPH; type: ADME
T2 sequence (P05177 whole entry): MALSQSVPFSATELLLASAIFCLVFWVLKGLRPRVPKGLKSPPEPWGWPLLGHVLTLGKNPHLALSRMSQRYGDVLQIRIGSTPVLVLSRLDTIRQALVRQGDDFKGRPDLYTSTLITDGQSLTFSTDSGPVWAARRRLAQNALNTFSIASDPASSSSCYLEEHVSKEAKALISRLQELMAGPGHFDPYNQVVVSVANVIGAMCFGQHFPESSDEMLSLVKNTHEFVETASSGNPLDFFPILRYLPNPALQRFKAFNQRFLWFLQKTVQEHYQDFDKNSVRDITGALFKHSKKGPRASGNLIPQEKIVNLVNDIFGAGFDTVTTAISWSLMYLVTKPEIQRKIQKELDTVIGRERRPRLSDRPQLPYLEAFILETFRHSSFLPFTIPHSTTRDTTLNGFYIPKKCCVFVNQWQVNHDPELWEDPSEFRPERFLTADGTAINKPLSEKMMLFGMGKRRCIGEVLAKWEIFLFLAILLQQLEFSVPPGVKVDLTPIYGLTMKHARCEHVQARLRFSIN

[30] = Half life in Sprague-Dawley rat at 10 mg/kg, po measured upto 24 hrs by LC-MS/MS analysis; type: ADME, organism-based; details: in vivo
Cytochrome P450 2D6 = Cytochrome P450 2D6 (Homo sapiens, UniProt P10635); assay: Inhibition of CYP2D6 in human liver microsomes in presence of NADPH; type: ADME
[31] = molecular target: Dual specificity calcium/calmodulin-dependent 3',5'-cyclic nucleotide phosphodiesterase 1B (Homo sapiens, UniProt Q01064); assay: Inhibition of PDE1B (146-506 residues) (unknown origin) expressed in Escherichia coli BL21 using [3H]-cAMP substrate incubated for 15 mins by liquid scintillation counting method
[32] = molecular target: cGMP-inhibited 3',5'-cyclic phosphodiesterase 3A (Homo sapiens, UniProt Q14432); assay: Inhibition of PDE3A (679-1087 residues) (unknown origin) expressed in Escherichia coli BL21 using [3H]-cAMP substrate incubated for 15 mins by liquid scintillation counting method
Mus musculus [33] = assay: Anti-VaD activity against UCCAO-induced spatial memory deficient C57BL/6J mouse model assessed as improvement in spatial learning and memory by measuring increase in latency time at 1 mg/kg, po administered for 21 days by passive avoidance test; type: functional, organism-based; details: time 21.0 day
Mus musculus [34] = assay: Anti-VaD activity against UCCAO-induced spatial memory deficient C57BL/6J mouse model assessed as improvement in spatial learning and memory by measuring increased the frequency of platform site crossing at 1 mg/kg, po administered for 21 days by Morris water maze test; type: functional, organism-based; details: time 21.0 day
Mus musculus [35] = assay: Anti-VaD activity against UCCAO-induced spatial memory deficient C57BL/6J mouse model assessed as improvement in spatial learning and memory by measuring increased the residence time in the platform area at 1 mg/kg, po administered for 21 days by Morris water maze test; type: functional, organism-based; details: time 21.0 day
Mus musculus [36] = assay: Anti-VaD activity against UCCAO-induced spatial memory deficient C57BL/6J mouse model assessed as improvement in spatial learning and memory by measuring reduction in escape latency at 1 mg/kg, po administered for 21 days by Morris water maze test; type: functional, organism-based; details: time 21.0 day
Mus musculus [37] = assay: Anti-VaD activity against UCCAO-induced spatial memory deficient C57BL/6J mouse model assessed as improvement in spatial learning and memory by measuring decrease in error rate at 1 mg/kg, po administered for 21 days by passive avoidance test; type: functional, organism-based; details: time 21.0 day

T1 sequence (O60658 whole entry, the tested form may be a part): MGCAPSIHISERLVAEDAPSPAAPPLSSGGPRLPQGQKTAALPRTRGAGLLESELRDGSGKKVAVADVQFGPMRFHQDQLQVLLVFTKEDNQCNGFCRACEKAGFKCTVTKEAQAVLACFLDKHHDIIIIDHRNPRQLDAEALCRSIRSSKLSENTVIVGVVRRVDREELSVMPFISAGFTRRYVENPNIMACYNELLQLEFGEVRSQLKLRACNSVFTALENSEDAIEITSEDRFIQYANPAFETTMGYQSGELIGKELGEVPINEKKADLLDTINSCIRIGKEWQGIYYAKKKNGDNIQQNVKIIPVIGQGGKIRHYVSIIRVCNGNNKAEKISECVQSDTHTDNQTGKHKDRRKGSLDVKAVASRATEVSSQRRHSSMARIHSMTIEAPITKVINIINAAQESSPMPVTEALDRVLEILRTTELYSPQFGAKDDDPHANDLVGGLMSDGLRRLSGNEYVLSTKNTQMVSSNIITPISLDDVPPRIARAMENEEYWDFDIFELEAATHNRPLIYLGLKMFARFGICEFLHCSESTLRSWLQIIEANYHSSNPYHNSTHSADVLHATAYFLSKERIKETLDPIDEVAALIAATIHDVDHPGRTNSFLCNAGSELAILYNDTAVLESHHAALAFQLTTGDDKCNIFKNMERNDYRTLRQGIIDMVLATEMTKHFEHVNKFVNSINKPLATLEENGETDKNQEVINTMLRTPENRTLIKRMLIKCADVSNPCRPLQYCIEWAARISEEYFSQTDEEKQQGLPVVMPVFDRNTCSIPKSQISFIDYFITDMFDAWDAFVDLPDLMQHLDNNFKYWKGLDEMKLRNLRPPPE
Sequence of Voltage-gated inwardly rectifying potassium channel KCNH2 (Q12809 whole entry): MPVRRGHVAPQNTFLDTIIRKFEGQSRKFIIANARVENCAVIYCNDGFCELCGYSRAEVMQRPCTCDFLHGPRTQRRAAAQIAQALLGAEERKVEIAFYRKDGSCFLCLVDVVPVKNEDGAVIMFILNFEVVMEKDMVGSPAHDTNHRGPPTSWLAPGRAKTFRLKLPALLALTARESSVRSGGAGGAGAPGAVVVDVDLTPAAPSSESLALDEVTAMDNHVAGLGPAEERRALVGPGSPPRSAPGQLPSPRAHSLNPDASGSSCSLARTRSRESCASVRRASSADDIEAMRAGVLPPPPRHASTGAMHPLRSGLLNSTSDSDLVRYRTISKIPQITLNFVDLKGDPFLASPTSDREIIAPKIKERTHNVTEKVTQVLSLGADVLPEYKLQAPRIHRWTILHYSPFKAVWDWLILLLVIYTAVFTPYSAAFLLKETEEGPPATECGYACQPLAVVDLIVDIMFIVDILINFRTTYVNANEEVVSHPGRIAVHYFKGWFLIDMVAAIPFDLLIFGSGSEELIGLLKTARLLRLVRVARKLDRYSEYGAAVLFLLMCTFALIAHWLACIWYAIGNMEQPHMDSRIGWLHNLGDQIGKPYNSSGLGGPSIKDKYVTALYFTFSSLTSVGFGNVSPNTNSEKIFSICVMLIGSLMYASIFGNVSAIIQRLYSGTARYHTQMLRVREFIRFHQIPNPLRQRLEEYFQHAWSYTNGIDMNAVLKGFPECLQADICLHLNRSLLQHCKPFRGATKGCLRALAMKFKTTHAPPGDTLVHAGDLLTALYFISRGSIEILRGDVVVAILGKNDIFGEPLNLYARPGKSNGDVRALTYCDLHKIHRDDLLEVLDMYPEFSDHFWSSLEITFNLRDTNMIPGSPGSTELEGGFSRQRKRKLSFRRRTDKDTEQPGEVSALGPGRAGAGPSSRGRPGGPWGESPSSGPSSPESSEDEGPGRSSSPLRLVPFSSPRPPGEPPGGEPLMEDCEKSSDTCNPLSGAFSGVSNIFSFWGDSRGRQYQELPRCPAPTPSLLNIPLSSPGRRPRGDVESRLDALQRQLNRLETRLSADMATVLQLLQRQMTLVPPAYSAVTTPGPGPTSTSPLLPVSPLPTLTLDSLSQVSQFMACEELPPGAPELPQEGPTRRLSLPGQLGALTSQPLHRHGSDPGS
Sequence of High affinity 3',5'-cyclic-AMP phosphodiesterase 7A (Q13946 whole entry, the tested form may be a part): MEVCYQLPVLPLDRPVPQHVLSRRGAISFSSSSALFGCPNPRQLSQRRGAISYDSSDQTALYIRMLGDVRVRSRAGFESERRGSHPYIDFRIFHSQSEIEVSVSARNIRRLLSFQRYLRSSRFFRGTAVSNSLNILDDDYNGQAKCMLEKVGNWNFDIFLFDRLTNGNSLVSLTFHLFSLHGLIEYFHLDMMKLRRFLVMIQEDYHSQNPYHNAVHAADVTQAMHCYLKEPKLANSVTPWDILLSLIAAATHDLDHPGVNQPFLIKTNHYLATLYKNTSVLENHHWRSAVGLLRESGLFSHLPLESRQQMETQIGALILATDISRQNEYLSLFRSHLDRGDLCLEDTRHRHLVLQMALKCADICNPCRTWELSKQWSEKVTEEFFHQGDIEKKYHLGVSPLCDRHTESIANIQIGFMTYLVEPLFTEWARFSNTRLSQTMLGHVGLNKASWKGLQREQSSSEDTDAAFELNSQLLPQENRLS
Sequence of cGMP-inhibited 3',5'-cyclic phosphodiesterase 3A (Q14432 whole entry, the tested form may be a part): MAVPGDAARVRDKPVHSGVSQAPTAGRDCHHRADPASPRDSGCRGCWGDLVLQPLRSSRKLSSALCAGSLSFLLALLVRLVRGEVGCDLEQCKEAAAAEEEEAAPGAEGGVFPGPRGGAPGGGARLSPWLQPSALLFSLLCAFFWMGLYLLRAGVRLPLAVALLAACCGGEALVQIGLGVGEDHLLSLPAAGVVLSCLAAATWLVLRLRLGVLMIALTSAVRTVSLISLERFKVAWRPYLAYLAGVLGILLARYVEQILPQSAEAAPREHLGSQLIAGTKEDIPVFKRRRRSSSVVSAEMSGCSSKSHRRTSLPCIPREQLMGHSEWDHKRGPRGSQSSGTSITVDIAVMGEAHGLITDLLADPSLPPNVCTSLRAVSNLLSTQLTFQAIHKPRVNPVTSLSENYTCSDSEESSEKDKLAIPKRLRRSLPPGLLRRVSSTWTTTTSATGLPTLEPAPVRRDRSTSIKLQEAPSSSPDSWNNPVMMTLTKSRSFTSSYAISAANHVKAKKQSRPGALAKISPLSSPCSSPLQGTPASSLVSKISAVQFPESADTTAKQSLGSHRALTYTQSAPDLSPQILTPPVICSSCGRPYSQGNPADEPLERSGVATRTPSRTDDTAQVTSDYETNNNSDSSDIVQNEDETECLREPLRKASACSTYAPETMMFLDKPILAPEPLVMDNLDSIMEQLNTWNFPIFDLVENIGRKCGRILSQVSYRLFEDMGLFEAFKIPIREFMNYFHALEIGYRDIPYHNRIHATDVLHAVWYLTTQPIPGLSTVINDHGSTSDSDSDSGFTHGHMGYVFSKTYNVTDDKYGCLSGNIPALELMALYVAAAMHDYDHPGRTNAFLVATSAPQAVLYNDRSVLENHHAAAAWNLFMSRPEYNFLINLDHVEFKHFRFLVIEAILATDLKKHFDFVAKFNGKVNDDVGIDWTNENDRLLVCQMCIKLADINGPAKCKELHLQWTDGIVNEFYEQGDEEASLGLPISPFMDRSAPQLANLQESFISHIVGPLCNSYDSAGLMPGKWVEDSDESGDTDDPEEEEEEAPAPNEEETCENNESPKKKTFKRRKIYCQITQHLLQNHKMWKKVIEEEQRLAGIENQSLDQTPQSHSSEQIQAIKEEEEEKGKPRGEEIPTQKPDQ
Sequence of Cytochrome P450 3A4 (P08684 whole entry): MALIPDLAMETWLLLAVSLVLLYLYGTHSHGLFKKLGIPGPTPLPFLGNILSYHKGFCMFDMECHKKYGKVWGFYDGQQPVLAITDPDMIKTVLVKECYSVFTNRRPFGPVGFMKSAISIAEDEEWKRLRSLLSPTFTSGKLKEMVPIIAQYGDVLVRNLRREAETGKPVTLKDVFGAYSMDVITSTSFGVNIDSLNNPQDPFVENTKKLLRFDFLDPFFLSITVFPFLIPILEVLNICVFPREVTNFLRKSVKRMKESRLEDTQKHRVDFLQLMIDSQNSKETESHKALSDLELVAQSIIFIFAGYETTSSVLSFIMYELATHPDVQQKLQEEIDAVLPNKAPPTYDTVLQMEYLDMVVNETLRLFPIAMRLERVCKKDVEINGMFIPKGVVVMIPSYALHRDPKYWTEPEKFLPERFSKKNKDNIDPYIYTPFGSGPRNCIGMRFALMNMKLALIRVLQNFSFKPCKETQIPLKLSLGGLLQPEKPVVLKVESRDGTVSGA
Sequence of Cytochrome P450 2C19 (P33261 whole entry): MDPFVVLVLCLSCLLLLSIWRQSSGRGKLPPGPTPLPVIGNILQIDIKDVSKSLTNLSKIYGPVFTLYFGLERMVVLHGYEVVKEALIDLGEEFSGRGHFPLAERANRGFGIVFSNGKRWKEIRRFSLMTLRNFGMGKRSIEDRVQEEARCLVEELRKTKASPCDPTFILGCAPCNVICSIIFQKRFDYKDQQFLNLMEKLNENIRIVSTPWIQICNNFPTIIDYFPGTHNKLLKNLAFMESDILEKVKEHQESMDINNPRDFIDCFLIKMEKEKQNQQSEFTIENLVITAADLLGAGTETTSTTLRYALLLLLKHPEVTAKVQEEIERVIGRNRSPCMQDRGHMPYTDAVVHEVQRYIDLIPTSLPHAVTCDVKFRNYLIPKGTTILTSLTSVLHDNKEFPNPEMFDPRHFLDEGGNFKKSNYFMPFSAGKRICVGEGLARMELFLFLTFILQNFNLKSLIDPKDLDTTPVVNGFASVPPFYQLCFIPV

SMILES: Cc1cccc(Cn2cnc3c(N)nc(Cl)nc32)n1
inhibition [1]: 14%

SMILES: COc1cc2c(cc1OC)C(=O)C(CC1CCN(Cc3ccccc3)CC1)C2 (stereo not drawn)
Activity (Mus musculus [33]): Active | Activity (Mus musculus [34]): Active | Activity (Mus musculus [35]): Active | Activity (Mus musculus [36]): Active | Activity (Mus musculus [37]): Active

Further lines, with some results ahead:

IC50 [2]: 0.36 µM
SMILES: Nc1nc(Cl)nc2c1ncn2Cc1cc(OCC(F)F)ccn1

solubility [3]: 108 µg/mL (≈ 304 µM) | Cmax [4]: 2190 ng/mL | bioavailability [6]: 47% | IC50 (Cytochrome P450 2C9): > 25 µM | AUC(0-inf) [7]: 9420 ng·h/mL | IC50 (Cytochrome P450 2C19): > 25 µM | AUC(0-t) at 24 h [10]: 9410 ng·h/mL | Papp [11]: 6 ×10⁻⁶ cm/s | fraction unbound [12]: 0.22 | logP [13]: 3.84 | MRT last at 24 h [14]: 7.2 h | MRT last at 24 h [15]: 4.48 h | pKa [16]: 3.69 | IC50 (Cytochrome P450 3A4): > 25 µM | AUC(0-inf) [19]: 17600 ng·h/mL | Tmax [20]: 8.4 min | IC50 [21]: > 10 µM | IC50 [23]: > 10 µM | Tmax [24]: 4 h | Cmax [25]: 1940 ng/mL | half-life [26]: 2.36 h | IC50 [27]: > 10 µM | AUC(0-t) at 24 h [28]: 17500 ng·h/mL | IC50 [29]: > 10 µM | IC50 (Cytochrome P450 1A2): > 25 µM | half-life [30]: 2.82 h | IC50 (Cytochrome P450 2D6): > 25 µM | IC50 [31]: > 10 µM | IC50 [32]: > 10 µM
SMILES: C[C@@H](c1cc(OCC(F)F)ccn1)n1cnc2c(N)nc(Cl)nc21
Activity (Mus musculus [5]): Active | Activity (Mus musculus [8]): Active | Activity (Mus musculus [9]): Active | Activity (Mus musculus [17]): Active | IC50 [18]: 18 µM | Activity (Mus musculus [22]): Active

inhibition [1]: 24%
SMILES: Nc1nc(Cl)nc2c1ncn2Cc1ccccn1

Source: ChEMBL document CHEMBL4699664, “Rational Design of 2-Chloroadenine Derivatives as Highly Selective Phosphodiesterase 8A Inhibitors” (J Med Chem, 2020)
